In patent US10821115B2, “Compounds that inhibit Mcl-1 protein” (priority 2017, dated 2020):
Where two headings read alike, the source gives them in different places.

Key:
[1] = system: human multiple myeloma cell line, OPM-2; experiment: Cell viability assay (OPM-2 10 FBS), CellTiter-Glo; type: cell-based
Summary of the method: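 OPM-2 cells at 3000 cells/well in RPMI 1640 with 10% FBS were exposed to serially diluted compounds for 16 h at 37 °C, 5% CO2.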

[2] = target: recombinant human Mcl-1 (residues 171-327) / Bim interaction (Homo sapiens (Human), UniProt Q07820); experiment: biochemical; type: binding; conditions: read-out: Mcl-1 HTRF IC50
[3] = read-out: OPM-2 10% FBS IC50 IP, OPM-2 cells, 10% FBS, 16 h, CellTiter-Glo
[4] = TR-FRET, Mcl-1(171-327) / biotin-Bim (51-76)
[5] = Homo sapiens, OPM-2, 16 h, read-out: OPM-2 10% FBS IC50 IP, OPM-2 cells, 10% FBS, 16 h, CellTiter-Glo

recombinant human Mcl-1 (residues 171-327) / Bim interaction, sequence (Q07820 171-327): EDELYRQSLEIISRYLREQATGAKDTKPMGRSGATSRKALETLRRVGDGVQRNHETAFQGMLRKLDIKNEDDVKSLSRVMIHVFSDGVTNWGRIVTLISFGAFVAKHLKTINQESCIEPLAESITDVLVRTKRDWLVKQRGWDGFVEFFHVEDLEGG

Compound	IC50 [1, 3] [nM]	IC50 [2, 4] [nM]	IC50 [1, 5] [nM]	IC50 [2] [nM]
C[C@@H]1[C@@H](C)C/C=C/[C@@](O)(C[S@@+](C)[O-])[C@@H]2CC[C@H]2CN2C[C@@]3(CCCc4cc(Cl)ccc43)COc3ccc(cc32)C(=O)NS1(=O)=O (stereo in doubt) [Example 100075]	1820	0.671	–	–
C=CC[C@@]1(O)/C=C/C[C@H](C)[C@@H](C)S(=O)(=O)NC(=O)c2ccc3c(c2)N(C[C@@H]2CC[C@H]21)C[C@@]1(CCCc2cc(Cl)ccc21)CO3 (stereo in doubt) [Example 100127]	108	0.175	–	–
C[C@@H]1[C@@H](C)C/C=C/[C@@](O)(CCCO)[C@@H]2CC[C@H]2CN2C[C@@]3(CCCc4cc(Cl)ccc43)COc3ccc(cc32)C(=O)NS1(=O)=O (stereo in doubt) [Example 100128]	–	0.089	217	–
C[C@@H]1[C@@H](C)CCC[C@@]2(C[C@H](C)C(=O)O2)[C@@H]2CC[C@H]2CN2C[C@@]3(CCCc4cc(Cl)ccc43)COc3ccc(cc32)C(=O)NS1(=O)=O (stereo in doubt) [Example 100129]	–	2.4	4870	–
C[C@@H]1[C@@H](C)C/C=C/[C@]2(CCCO2)[C@@H]2CC[C@H]2CN2C[C@@]3(CCCc4cc(Cl)ccc43)COc3ccc(cc32)C(=O)NS1(=O)=O (stereo in doubt) [Example 100132]	–	0.543	675	–
CO[C@@]1(CO)CCC[C@H](C)[C@@H](C)S(=O)(=O)NC(=O)c2ccc3c(c2)N(C[C@@H]2CC[C@H]21)C[C@@]1(CCCc2cc(Cl)ccc21)CO3 (stereo in doubt) [Example 100133, (1S,3′R,6′R,7′S,11′S,12′R)-6-chloro-7′-(hydroxymethyl)-7′-methoxy-11′,12′-dimethyl-3,4-dihydro-2H,15′H-spiro[naphthalene-1,22′-[20]oxa[13]thia[1,14]diazatetracyclo [14.7.2.0~3,6~.0~19,24~]pentacosa[16,18,24]rien]-15′-one 13′,13′-dioxide]	984	0.885	–	–
COC[C@]1(O)CCC[C@H](C)[C@@H](C)S(=O)(=O)NC(=O)c2ccc3c(c2)N(C[C@@H]2CC[C@H]21)C[C@@]1(CCCc2cc(Cl)ccc21)CO3 (stereo in doubt) [Example 100149, (1S,3′R,6′R,7′S,11′S,12′R)-6-chloro-7′-hydroxy-7′-(methoxymethyl)-11′,12′-dimethyl-3,4-dihydro-2H,15′H-spiro[naphthalene-1,22′-[20]oxa[13]thia[1,14]diazatetracyclo [14.7.2.0~3,6~.0~19,24~]pentacosa[16,18,24]rien]-15′-one 13′,13′-dioxide]	–	0.214	186	–
C[C@@H]1[C@@H](C)CCC[C@@](O)(CC(=O)N2CCOC2=O)[C@@H]2CC[C@H]2CN2C[C@@]3(CCCc4cc(Cl)ccc43)COc3ccc(cc32)C(=O)NS1(=O)=O (stereo in doubt) [Example 100154, (1S,3′R,6′R,7′R,11′S,12′R)-6-chloro-7′-hydroxy-11′,12′-dimethyl-7′-(2-oxo-2-(2-oxo-1,3-oxazolidin-3-yl)ethyl)-3,4-dihydro-2H,15′H-spiro[naphthalene-1,22′-[20]oxa[13]thia[1,14]diazatetracyclo [14.7.2.0~3,6~.0~19,24~]pentacosa[16,18,24]rien]-15′-one 13′,13′-dioxide]	1070	1.72	–	–
C[C@@H]1[C@@H](C)CCC[C@](O)(CS(C)(=O)=O)[C@@H]2CC[C@H]2CN2C[C@@]3(CCCc4cc(Cl)ccc43)COc3ccc(cc32)C(=O)NS1(=O)=O (stereo in doubt) [Example 100161]	–	0.355	757	–
C[C@@H]1[C@@H](C)CCC[C@]2(CO2)[C@@H]2CC[C@H]2CN2C[C@@]3(CCCc4cc(Cl)ccc43)COc3ccc(cc32)C(=O)NS1(=O)=O (stereo in doubt) [Example 100164]	–	0.917	967	–
CO[C@@]1(CO)CCC[C@H](C)[C@@H](C)S(=O)(=O)NC(=O)c2ccc3c(c2)N(C[C@@H]2CC[C@H]21)C[C@@]1(CCCc2cc(Cl)ccc21)CO3 (stereo in doubt) [Example 100184, (1S,3′R,6′R,7′S,11′S,12′R)-6-chloro-7′-(hydroxymethyl)-7′-methoxy-11′,12′-dimethyl-3,4-dihydro-2H,15′H-spiro[naphthalene-1,22′-[20]oxa[13]thia[1,14]diazatetracyclo [14.7.2.0~3,6~.0~19,24~]pentacosa[16,18,24]rien]-15′-one 13′,13′-dioxide]	179	0.717	–	–
C[C@@H]1[C@@H](C)CCC[C@](O)(COCCN(C)C)[C@@H]2CC[C@H]2CN2C[C@@]3(CCCc4cc(Cl)ccc43)COc3ccc(cc32)C(=O)NS1(=O)=O (stereo in doubt) [Example 100196]	358	0.461	–	–
C[C@@H]1[C@@H](C)C/C=C/[C@@](O)(c2ncnn2C)C2CC[C@H]2CN2C[C@@]3(CCCc4cc(Cl)ccc43)COc3ccc(cc32)C(=O)NS1(=O)=O (stereo in doubt) [Example 100222, (1S,3′R,6′S,7′S,8′E,11′S,12′R)-6-chloro-7′-hydroxy-11′,12′-dimethyl-7′-(1-methyl-1H-1,2,4-triazol-5-yl)-3,4-dihydro-2H,15′H-spiro[naphthalene-1,22′-[20]oxa[13]thia[1,14]diazatetracyclo [14.7.2.0~3,6~.0~19,24~]pentacosa[8,16,18,24]tetraen]-15′-one 13′,13′-dioxide]	–	0.182	222	–
C[C@@H]1[C@@H](C)CCC[C@](O)(c2ncccn2)[C@@H]2CC[C@H]2CN2C[C@@]3(CCCc4cc(Cl)ccc43)COc3ccc(cc32)C(=O)NS1(=O)=O (stereo in doubt) [Example 100270]	–	–	3720	0.776
CO[C@@]1(CS(=O)(=O)C(C)C)/C=C/C[C@H](C)[C@@H](C)S(=O)(=O)NC(=O)c2ccc3c(c2)N(C[C@@H]2CC[C@H]21)C[C@@]1(CCCc2cc(Cl)ccc21)CO3 (stereo in doubt) [Example 100315, (1S,3′R,6′R,7′S,8′E,11′S,12′R)-6-chloro-7′-methoxy-11′,12′-dimethyl-7′-((2-propanylsulfonyl)methyl)-3,4-dihydro-2H,15′H-spiro[naphthalene-1,22′-[20]oxa[13]thia[1,14]diazatetracyclo [147.2.0~3,6~.0~19,24~]pentacosa[8,16,18,24]tetraen]-15′-one 13′,13′-dioxide]	153	0.2	–	–
CO[C@@]1([C@@H](C)O)/C=C/C[C@H](C)[C@@H](C)S(=O)(=O)NC(=O)c2ccc3c(c2)N(C[C@@H]2CC[C@H]21)C[C@@]1(CCCc2cc(Cl)ccc21)CO3 (stereo in doubt) [Example 100487]	–	0.436	340	–
CO[C@]1(c2cncc(CN3CCOCC3)c2)/C=C/C[C@H](C)[C@@H](C)S(=O)(=O)NC(=O)c2ccc3c(c2)N(C[C@@H]2CC[C@H]21)C[C@@]1(CCCc2cc(Cl)ccc21)CO3 (stereo in doubt) [Example 100521]	–	0.197	296	–
